Experimental data as given in patent publication US11339171B2, “MDM2 inhibitors” (Gan & Lee Pharmaceuticals, priority 2017, dated 2022).
“And” between values parts separate entries of the source, which are not always exact repeats. Identical values can stand only once. Like-named read-outs stand apart in the source and are kept apart here.

Assays:
MDM2 = target: T1, MDM2 (Homo sapiens, UniProt Q00987); assay: Inhibition test of MDM2-P53 (GST-MDM2, Biotin-P53, Anti-GST-Tb, SA-XL665); format: binding
T1 construct: made in house
T1 sequence (Q00987 whole entry): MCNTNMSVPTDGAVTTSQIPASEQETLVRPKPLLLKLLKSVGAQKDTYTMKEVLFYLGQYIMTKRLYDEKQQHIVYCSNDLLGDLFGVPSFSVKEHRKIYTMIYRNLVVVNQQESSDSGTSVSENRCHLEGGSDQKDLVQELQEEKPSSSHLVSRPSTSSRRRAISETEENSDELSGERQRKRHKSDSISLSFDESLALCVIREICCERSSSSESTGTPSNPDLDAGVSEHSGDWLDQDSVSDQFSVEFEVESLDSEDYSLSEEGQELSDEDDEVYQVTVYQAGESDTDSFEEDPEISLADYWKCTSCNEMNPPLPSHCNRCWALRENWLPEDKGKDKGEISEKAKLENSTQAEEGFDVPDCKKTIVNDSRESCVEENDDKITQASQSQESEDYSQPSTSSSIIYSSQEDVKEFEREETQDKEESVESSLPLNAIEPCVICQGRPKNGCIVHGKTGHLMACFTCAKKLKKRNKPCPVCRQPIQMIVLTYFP
In short: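 Binding was measured by TR-FRET with GST-MDM2 at 4 nM final in PBS with 0.1% BSA, 5 mM DTT and 1 mM AEBSF. Compounds were tested as twelve-point 5-fold dilutions and incubated with the detection mix for 90 min at 25 °C with shaking before plate-reader reading and curve fitting.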

[1] = Pharmacokinetics in ICR mice after intravenous and intragastric administration; format: in vivo; details: for Vd: read-out: Vz; for MRT last: read-out: MRT(0-t); for MRT inf: read-out: MRT(0-∞)
In short: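 Plasma concentrations by LC-MS/MS (range 1 to 2000 ng/ml) following single intravenous (2 mg/kg) or oral gavage (5 mg/kg) dosing of fasted male ICR mice, three per group. Vehicle 5% DMSO + 40% PEG400 + 55% (10% HP-β-CD in saline); standard PK parameters including bioavailability calculated.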

[2] = tested on: human osteosarcoma cell line SJSA-1; assay: Inhibition of proliferation of human osteosarcoma cell line SJSA-1 (DAPI staining, In Cell Analyzer); details: Homo sapiens, SJSA-1, 72 h, read-out: IC50 (nM), inhibitory activity on proliferation of human osteosarcoma cell line SJSA-1, SJSA-1, incubated 72 h
[3] = ICR mice, IV 2 mg/kg, individual animal, 2 mg/kg
[4] = ICR mice, PO 5 mg/kg, individual animal, 5 mg/kg
[5] = male, ICR, mouse, plasma, iv, 2 mg/kg, ICR mice, IV 2 mg/kg, individual animal, read-out: Cmax
[6] = male, ICR, mouse, plasma, iv, 2 mg/kg, ICR mice, IV 2 mg/kg, individual animal, read-out: Tmax
[7] = male, ICR, mouse, plasma, iv, 2 mg/kg, ICR mice, IV 2 mg/kg, individual animal
[8] = male, ICR, mouse, plasma, iv, 2 mg/kg, ICR mice, IV 2 mg/kg, mean of 3 animals
[9] = male, ICR, mouse, plasma, iv, 2 mg/kg, ICR mice, IV 2 mg/kg, mean of 3 animals, read-out: AUC(0-t)
[10] = male, ICR, mouse, plasma, iv, 2 mg/kg, ICR mice, IV 2 mg/kg, mean of 3 animals, read-out: Cmax
[11] = male, ICR, mouse, plasma, iv, 2 mg/kg, ICR mice, IV 2 mg/kg, mean of 3 animals, read-out: Tmax
[12] = male, ICR, mouse, plasma, iv, 2 mg/kg, ICR mice, IV 2 mg/kg, mean of 3 animals, read-out: t1/2 (converted)
[13] = male, ICR, mouse, plasma, po, 5 mg/kg, ICR mice, PO 5 mg/kg, individual animal
[14] = male, ICR, mouse, plasma, po, 5 mg/kg, ICR mice, PO 5 mg/kg, individual animal, read-out: Tmax
[15] = male, ICR, mouse, plasma, po, 5 mg/kg, ICR mice, PO 5 mg/kg, individual animal, read-out: t1/2 (converted)
[16] = male, ICR, mouse, plasma, po, 5 mg/kg, ICR mice, PO 5 mg/kg, mean of 3 animals
[17] = male, ICR, mouse, plasma, po, 5 mg/kg, ICR mice, PO 5 mg/kg, mean of 3 animals, read-out: AUC(0-t)
[18] = male, ICR, mouse, plasma, po, 5 mg/kg, ICR mice, PO 5 mg/kg, mean of 3 animals, read-out: Cmax
[19] = male, ICR, mouse, plasma, po, 5 mg/kg, ICR mice, PO 5 mg/kg, mean of 3 animals, read-out: Tmax
[20] = male, ICR, mouse, plasma, po, 5 mg/kg, ICR mice, PO 5 mg/kg, mean of 3 animals, read-out: t1/2 (converted)
[21] = male, ICR, mouse, plasma, po, 5 mg/kg, oral intragastric administration 5 mg/kg, read-out: AUC0-t
[22] = male, ICR, mouse, plasma, po, 5 mg/kg, oral intragastric administration 5 mg/kg, read-out: half-life (converted)
[23] = male, mouse, plasma, ICR mice, PO 5 mg/kg vs IV 2 mg/kg, from mean values, read-out: F* (bioavailability)
[24] = male, ICR, mouse, plasma, iv, 2 mg/kg, ICR mice, IV 2 mg/kg, individual animal, read-out: t1/2 (converted)
[25] = male, ICR, mouse, plasma, po, 5 mg/kg, ICR mice, PO 5 mg/kg, individual animal, read-out: Cmax

CCOc1cc(OC)c(-c2nc3c(n2C(C)C)[C@@]2(C(=O)Nc4cc(Cl)ccc42)N(c2cc(Cl)cnc2C)C3=O)cn1 [Example S-96, (S)-6-chloro-5′-(5-chloro-2-methylpyridin-3-yl)-2′-(6-ethoxy-4-methoxypyridin-3-yl)-3′-isopropyl-3′H-spiro[dihydroindole-3,4′-pyrrolo[3,4-d]imidazole]-2,6′(5′H)-dione]
IC50 (MDM2): 1.04 nM
AUC(0-t) [1, 3]: 3109.78 ng·h/mL and 3206.41 ng·h/mL and 6719.85 ng·h/mL
AUC(0-∞) [1, 3]: 3157.25 ng·h/mL and 3250.65 ng·h/mL and 6815.93 ng·h/mL
CL [1, 3]: 10.56 mL/min/kg and 10.25 mL/min/kg and 4.89 mL/min/kg
Cmax [1, 3]: 3353.43 ng/mL and 3438.41 ng/mL
MRT(0-t) [1, 3]: 0.90 h and 2.62 h
MRT(0-∞) [1, 3]: 1.00 h and 0.99 h and 2.99 h
Vz [1, 3]: 0.95 L/kg and 1.42 L/kg
t1/2 [1, 3]: 0.93 h and 1.07 h and 3.36 h
AUC(0-t) [1, 4]: 6327.28 ng·h/mL and 6993.90 ng·h/mL and 13010.63 ng·h/mL
AUC(0-∞) [1, 4]: 6705.00 ng·h/mL and 7471.54 ng·h/mL and 15115.19 ng·h/mL
Cmax [1, 4]: 3921.65 ng/mL and 2400.19 ng/mL and 5236.64 ng/mL
MRT(0-t) [1, 4]: 2.42 h and 2.30 h
MRT(0-∞) [1, 4]: 2.97 h and 3.61 h
Tmax [1, 4]: 0.50 h
t1/2 [1, 4]: 2.06 h and 2.58 h
Cmax [1, 5]: 2980 ng/mL
Tmax [1, 6]: 0.08 h
Vd [1, 7]: 0.85 L/kg
AUC(0-inf) [1, 8]: 4410 ng·h/mL
clearance [1, 8]: 8.57 mL/min/kg
AUC(0-t) [1, 9]: 4350 ng·h/mL
Cmax [1, 10]: 3260 ng/mL
MRT last [1, 8]: 1.47 h
MRT inf [1, 8]: 1.66 h
Tmax [1, 11]: 0.083 h
Vd [1, 8]: 1.07 L/kg
half-life [1, 12]: 1.79 h
MRT last [1, 13]: 1.66 h
MRT inf [1, 13]: 2.15 h
Tmax [1, 14]: 0.25 h
half-life [1, 15]: 1.69 h
AUC(0-inf) [1, 16]: 9760 ng·h/mL
AUC(0-t) [1, 17]: 8780 ng·h/mL
Cmax [1, 18]: 3850 ng/mL
MRT last [1, 16]: 2.13 h
MRT inf [1, 16]: 2.91 h
Tmax [1, 19]: 0.42 h
half-life [1, 20]: 2.11 h
AUC(0-t) [1, 21]: 8780 ng·h/mL
half-life [1, 22]: 2.11 h
bioavailability [1, 23]: 80.8%
IC50 [2]: 25.3 nM

CCOc1cc(OC)c(-c2nc3c(n2C(C)C)[C@@]2(C(=O)Nc4cc(Cl)ccc42)N(c2cc(Cl)ccc2F)C3=O)cn1 [Example S-98, (S)-6-chloro-5′-(5-chloro-2-fluorophenyl)-2′-(6-ethoxy-4-methoxypyridin-3-yl)-3′-isopropyl-3′H-spiro[dihydroindole-3,4′-pyrrolo[3,4-d]imidazole]-2,6′(5′H)-dione]
IC50 (MDM2): 1.27 nM
AUC(0-t) [1, 3]: 8869.53 ng·h/mL and 11177.15 ng·h/mL
AUC(0-∞) [1, 3]: 9108.92 ng·h/mL and 12596.27 ng·h/mL
CL [1, 3]: 3.66 mL/min/kg and 2.65 mL/min/kg
Cmax [1, 3]: 3789.06 ng/mL and 3405.07 ng/mL
MRT(0-t) [1, 3]: 1.43 h and 1.82 h
MRT(0-∞) [1, 3]: 1.60 h and 2.60 h
Vz [1, 3]: 0.37 L/kg and 0.44 L/kg
t1/2 [1, 3]: 1.17 h and 1.93 h
AUC(0-t) [1, 4]: 37288.31 ng·h/mL and 18064.52 ng·h/mL and 23330.62 ng·h/mL
AUC(0-∞) [1, 4]: 19691.36 ng·h/mL and 23352.18 ng·h/mL
Cmax [1, 4]: 3420.72 ng/mL and 2943.86 ng/mL
MRT(0-t) [1, 4]: 3.17 h and 4.72 h
MRT(0-∞) [1, 4]: 3.82 h and 4.74 h
Tmax [1, 4]: 2.00 h
t1/2 [1, 4]: 2.12 h and 2.30 h
AUC(0-inf) [1, 7]: 10500 ng·h/mL
clearance [1, 7]: 3.16 mL/min/kg
AUC(0-t) ([1]; male, ICR, mouse, plasma, iv, 2 mg/kg, ICR mice, IV 2 mg/kg, individual animal, read-out: AUC(0-t)): 10000 ng·h/mL
Cmax [1, 5]: 3670 ng/mL
MRT last [1, 7]: 1.55 h
MRT inf [1, 7]: 1.86 h
Tmax [1, 6]: 0.08 h
Vd [1, 7]: 0.39 L/kg
half-life [1, 24]: 1.43 h
AUC(0-inf) [1, 8]: 10700 ng·h/mL
clearance [1, 8]: 3.16 mL/min/kg
AUC(0-t) [1, 9]: 10000 ng·h/mL
Cmax [1, 10]: 3620 ng/mL
MRT last [1, 8]: 1.6 h
MRT inf [1, 8]: 2.02 h
Tmax [1, 11]: 0.083 h
Vd [1, 8]: 0.4 L/kg
half-life [1, 12]: 1.51 h
AUC(0-inf) [1, 13]: 37300 ng·h/mL
Cmax [1, 25]: 3840 ng/mL
MRT last [1, 13]: 5.36 h
MRT inf [1, 13]: 5.38 h
Tmax [1, 14]: 4 h
half-life [1, 15]: 2.31 h
AUC(0-inf) [1, 16]: 26800 ng·h/mL
AUC(0-t) [1, 17]: 26200 ng·h/mL
Cmax [1, 18]: 3400 ng/mL
MRT last [1, 16]: 4.41 h
MRT inf [1, 16]: 4.65 h
Tmax [1, 19]: 2.67 h
half-life [1, 20]: 2.24 h
AUC(0-t) [1, 21]: 26200 ng·h/mL
half-life [1, 22]: 2.24 h
bioavailability ([1]; male, ICR, mouse, plasma, oral intragastric administration 5 mg/kg, read-out: bioavailability): 105%
bioavailability [1, 23]: 105%
IC50 [2]: 56.1 nM

COc1cc(C2CC2)ncc1-c1nc2c(n1C(C)C)[C@@]1(C(=O)Nc3cc(Cl)ccc31)N(c1cc(Cl)ccc1C)C2=O [Example S-103, (S)-6-chloro-5′-(5-chloro-2-methylphenyl)-2′-(6-cyclopropyl-4-methoxypyridin-3-yl)-3′-isopropyl-3′H-spiro[dihydroindole-3,4′-pyrrolo[3,4-d]imidazole]-2,6′(5′H)-dione]
IC50 (MDM2): 1.81 nM
AUC(0-t) [1, 3]: 10460.62 ng·h/mL and 4009.87 ng·h/mL and 5508.40 ng·h/mL
AUC(0-∞) [1, 3]: 10483.52 ng·h/mL and 5119.53 ng·h/mL and 8771.81 ng·h/mL
CL [1, 3]: 3.18 mL/min/kg and 6.51 mL/min/kg and 3.80 mL/min/kg
Cmax [1, 3]: 1045.99 ng/mL and 1333.49 ng/mL
MRT(0-t) [1, 3]: 4.16 h and 2.05 h and 2.33 h
MRT(0-∞) [1, 3]: 3.75 h and 5.91 h
Vz [1, 3]: 1.53 L/kg and 1.35 L/kg
t1/2 [1, 3]: 2.71 h and 4.11 h
AUC(0-t) [1, 4]: 13078.28 ng·h/mL and 19872.62 ng·h/mL
AUC(0-∞) [1, 4]: 14231.55 ng·h/mL and 19888.79 ng·h/mL
Cmax [1, 4]: 2344.01 ng/mL and 3008.06 ng/mL
MRT(0-t) [1, 4]: 3.36 h and 4.45 h
MRT(0-∞) [1, 4]: 3.93 h and 4.47 h
Tmax [1, 4]: 4.00 h
t1/2 [1, 4]: 1.72 h and 2.23 h
Cmax [1, 5]: 1330 ng/mL
MRT inf [1, 7]: 4.21 h
Tmax [1, 6]: 1 h
Vd [1, 7]: 0.79 L/kg
half-life [1, 24]: 2.89 h
AUC(0-inf) [1, 8]: 8120 ng·h/mL
clearance [1, 8]: 4.5 mL/min/kg
AUC(0-t) [1, 9]: 6660 ng·h/mL
Cmax [1, 10]: 1240 ng/mL
MRT last [1, 8]: 2.85 h
MRT inf [1, 8]: 4.62 h
Tmax [1, 11]: 1 h
Vd [1, 8]: 1.22 L/kg
half-life [1, 12]: 3.24 h
AUC(0-inf) [1, 13]: 11700 ng·h/mL
AUC(0-t) ([1]; male, ICR, mouse, plasma, po, 5 mg/kg, ICR mice, PO 5 mg/kg, individual animal, read-out: AUC(0-t)): 11000 ng·h/mL
Cmax [1, 25]: 2380 ng/mL
MRT last [1, 13]: 3.08 h
MRT inf [1, 13]: 3.54 h
Tmax [1, 14]: 2 h
half-life [1, 15]: 1.84 h
AUC(0-inf) [1, 16]: 15300 ng·h/mL
AUC(0-t) [1, 17]: 14600 ng·h/mL
Cmax [1, 18]: 2580 ng/mL
MRT last [1, 16]: 3.63 h
MRT inf [1, 16]: 3.98 h
Tmax [1, 19]: 3.33 h
half-life [1, 20]: 1.93 h
AUC(0-t) [1, 21]: 14600 ng·h/mL
half-life [1, 22]: 1.93 h
bioavailability [1, 23]: 87.9%
IC50 [2]: 40.5 nM
